Results: publication PMC7576608, “Mechanisms of telomerase inhibition by oxidized and therapeutic dNTPs” (Nature Communications, 2020)
Several values for one entry are separate records, joined by “and”; a condition that tells them apart may be missing. Identical values can stand only once. Like-named read-outs stand apart in the source and are kept apart here.

Biological target: telomerase (Homo sapiens, UniProt O14746)
Assay: Telomerase repeat processivity IC50: modified dNTP titrated into reactions with all four natural dNTPs
Type: biochemical
Design: made in house; anti-FLAG immunopurification, eluted with 3xFLAG peptide
Details: for YIntercept (line fit of ln(100-%LB) vs # telomere repeats) / ln(100-%LB): n1-n3
Description: In order to better understand the ability of modified dNTPs to compete with natural dNTPs for telomerase utilization, we added modified dNTPs to reactions containing all four natural dNTPs. […] The calculated IC50 determines the concentration required to reduce repeat processivity in the bulk reactions by half. However, it is important to note that bulk experiments cannot distinguish effects on individual telomeres, since extended telomeres mask unextended telomeres. Incorporation of a chain terminator during any step will terminate extension of the affected telomere, and just five critically short telomeres are sufficient to trigger senescence. Therefore, repeat processivity IC50 values are not necessarily an indicator of the inhibitory potency, but provide information on selectivity for modified dNTPs compared to natural dNTPs. […] The ability to purify sufficient quantities of tcTERT enables characterization of the catalytic nucleotide addition by pre-steady-state single turnover kinetics using a defined DNA–RNA primer–template substrate. The catalytic efficiency of incorporating a single dNTP is measured by dividing the observed nucleotide incorporation rate constant, kpol, by the equilibrium dissociation constant for dNTP binding to the tcTERT–primer–template complex (Kd)[44].
The reactions were started by the addition of 3 μl of immunopurified telomerase eluent, incubated at 37 °C for 1 h, then terminated with 2 μl of […] and heat inactivated at 65 °C for 20 min. An equal volume of loading buffer (94% formamide, 0.1× TBE, 0.1% bromophenol blue, 0.1% xylene cyanol) was added to the reaction eluent. The samples were heat denatured for 10 min at 100 °C and loaded onto a 14% denaturing acrylamide gel (7 M urea, 1× TBE) and electrophoresed for 90 min at constant 38 W. Samples were imaged using a Typhoon phosphorimager (GE Healthcare). Percent primer extension was calculated with ImageQuant TL 8.2 by measuring the intensity of each product band and dividing by the total radioactivity in the lane or total products, as indicated in the figure legends.
The processivity was calculated as described[40],[67]. Repeat processivity from the direct telomerase extension assays was calculated as R1/2 (equivalent to the half-time for decay in an exponential time course), which represents the median length of DNA product formed, expressed in terms of number of telomere repeats. First, the total volume counts for each product band extend by one or more telomere repeats were obtained using Image Quant TL. The volume counts were then normalized by dividing by the number of radiolabeled guanosines incorporated into the extended products based on the number of repeats added, termed corrected volume (corr vol). The “percent left behind” (%LB) was calculated for each product band by summing the counts for that product band and for every product band below (shorter products), divided by the total counts for the lane, and then multiplied by 100. The natural log of (100−%LB) was calculated and then plotted vs. repeat number for each product length. A linear regression line was fit to the data to determine the slope of the line. The R1/2 value was calculated by dividing −ln(2) by the slope of each fitted line (R1/2 = −ln(2)/slope).
Supplementary Fig 8. IC50 values for telomerase processivity inhibition. Telomerase reactions were conducted with cellular relevant concentrations of all four natural dNTPs and increasing concentrations of the modified dNTP analog from 0 to 10,000 μM to calculate. (a) The natural log of (100-%LB) was plotted vs repeat number. A straight line was fit to the data and the R1/2 value was calculated by dividing –ln(2) by the slope of each line. Plots shown from one experiment are […]

[1] = cellular relevant natural dNTPs, modified dNTP titrated 0 to 10,000 μM, based on repeat processivity, mean ± SD, read-out: Telomerase processivity IC50
[2] = fit of R 1/2 vs log(concentration), 8-oxo-dGTP, replicates N1-N4
[3] = log of processivity IC50 (concentration in μM), Supplementary Fig 8b, read-out: Log IC50 (converted)
[4] = dose-response fit of processivity R 1/2, individual replicates
[5] = dose-response fit of processivity R 1/2 vs log(concentration), individual replicates

Sequence of telomerase (O14746 whole entry): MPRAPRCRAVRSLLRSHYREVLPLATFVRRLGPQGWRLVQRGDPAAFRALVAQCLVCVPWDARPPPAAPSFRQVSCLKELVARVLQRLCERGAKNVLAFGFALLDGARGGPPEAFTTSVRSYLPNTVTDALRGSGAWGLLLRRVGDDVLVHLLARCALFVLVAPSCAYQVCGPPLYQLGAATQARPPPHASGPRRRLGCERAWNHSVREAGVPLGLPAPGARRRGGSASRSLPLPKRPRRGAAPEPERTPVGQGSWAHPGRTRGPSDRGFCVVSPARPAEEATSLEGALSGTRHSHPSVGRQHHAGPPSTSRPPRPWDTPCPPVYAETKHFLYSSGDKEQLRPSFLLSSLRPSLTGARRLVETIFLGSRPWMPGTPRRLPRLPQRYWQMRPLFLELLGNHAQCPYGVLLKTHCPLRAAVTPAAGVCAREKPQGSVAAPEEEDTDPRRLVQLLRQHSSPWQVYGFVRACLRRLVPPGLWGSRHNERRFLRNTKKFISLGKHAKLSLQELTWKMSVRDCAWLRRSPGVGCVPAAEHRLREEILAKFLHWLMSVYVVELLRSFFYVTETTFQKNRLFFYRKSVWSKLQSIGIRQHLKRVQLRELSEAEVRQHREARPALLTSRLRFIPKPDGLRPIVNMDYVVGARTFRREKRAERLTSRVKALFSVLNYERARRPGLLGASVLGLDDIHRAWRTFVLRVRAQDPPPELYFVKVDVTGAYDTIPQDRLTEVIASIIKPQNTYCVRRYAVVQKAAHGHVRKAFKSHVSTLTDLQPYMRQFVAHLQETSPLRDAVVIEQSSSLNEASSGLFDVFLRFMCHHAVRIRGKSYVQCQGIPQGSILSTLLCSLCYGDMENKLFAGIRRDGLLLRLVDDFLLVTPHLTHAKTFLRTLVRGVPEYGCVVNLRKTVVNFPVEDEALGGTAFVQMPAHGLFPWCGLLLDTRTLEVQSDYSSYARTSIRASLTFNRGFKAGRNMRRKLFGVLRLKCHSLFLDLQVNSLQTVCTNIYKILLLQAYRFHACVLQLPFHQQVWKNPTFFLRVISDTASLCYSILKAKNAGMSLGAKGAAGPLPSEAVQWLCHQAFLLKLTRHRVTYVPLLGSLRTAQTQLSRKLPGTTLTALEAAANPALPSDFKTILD

Nc1nc2c([nH]c(=O)n2C2CC(O)C(COP(=O)(O)OP(=O)(O)OP(=O)(O)O)O2)c(=O)[nH]1 (centres unmarked) [8-oxo-dGTP]
Processivity R 1/2 (8-oxo-dGTP 156.25 μM, replicates n1-n4): 3.18 and 2.53 and 3.23 | YIntercept (line fit of ln(100-%LB) vs # telomere repeats) (8-oxo-dGTP 160μM): 3.28 and 3.52 and 3.30 | ln(100-%LB) (8-oxo-dGTP 160μM, telomere repeat 1): 3.67 and 3.81 and 3.65 | ln(100-%LB) (8-oxo-dGTP 160μM, telomere repeat 2): 3.11 and 3.28 and 3.14 | ln(100-%LB) (8-oxo-dGTP 160μM, telomere repeat 3): 2.62 and 2.68 and 2.65 | ln(100-%LB) (8-oxo-dGTP 160μM, telomere repeat 4): 2.38 and 2.37 and 2.44 | ln(100-%LB) (8-oxo-dGTP 160μM, telomere repeat 5): 2.10 and 2.03 and 2.19 | ln(100-%LB) (8-oxo-dGTP 160μM, telomere repeat 6): 1.76 and 1.70 and 1.93 | ln(100-%LB) (8-oxo-dGTP 160μM, telomere repeat 7): 1.44 and 1.37 and 1.64 | ln(100-%LB) (8-oxo-dGTP 160μM, telomere repeat 8): 1.22 and 1.14 and 1.43 | ln(100-%LB) (8-oxo-dGTP 160μM, telomere repeat 9): 0.99 and 0.88 and 1.23 | ln(100-%LB) (8-oxo-dGTP 160μM, telomere repeat 10): 0.74 and 0.58 and 1.00 | YIntercept (line fit of ln(100-%LB) vs # telomere repeats) (8-oxo-dGTP 625μM): 3.24 and 3.54 and 3.75 | Processivity R 1/2 (8-oxo-dGTP 625 μM, replicates n1-n4): 2.67 and 2.52 and 3.04 | ln(100-%LB) (8-oxo-dGTP 625μM, telomere repeat 1): 3.67 and 3.79 and 3.89 | ln(100-%LB) (8-oxo-dGTP 625μM, telomere repeat 2): 3.11 and 3.31 and 3.40 | ln(100-%LB) (8-oxo-dGTP 625μM, telomere repeat 3): 2.62 and 2.84 and 2.91 | ln(100-%LB) (8-oxo-dGTP 625μM, telomere repeat 4): 2.38 and 2.60 and 2.62 | ln(100-%LB) (8-oxo-dGTP 625μM, telomere repeat 5): 2.10 and 2.36 and 2.34 | ln(100-%LB) (8-oxo-dGTP 625μM, telomere repeat 6): 1.76 and 2.09 and 2.01 | ln(100-%LB) (8-oxo-dGTP 625μM, telomere repeat 7): 1.44 and 1.77 and 1.66 | ln(100-%LB) (8-oxo-dGTP 625μM, telomere repeat 8): 1.22 and 1.56 and 1.41 | ln(100-%LB) (8-oxo-dGTP 625μM, telomere repeat 9): 0.99 and 1.31 and 1.14 | ln(100-%LB) (8-oxo-dGTP 625μM, telomere repeat 10): 0.74 and 1.05 and 0.85 | ln(100-%LB) (8-oxo-dGTP 625μM, telomere repeat 11): 0.51 and 0.79 and 0.55 | ln(100-%LB) (8-oxo-dGTP 625μM, telomere repeat 12): 0.32 and 0.58 and 0.29 | YIntercept (line fit of ln(100-%LB) vs # telomere repeats) (8-oxo-dGTP 2500μM): 4.49 and 4.30 and 4.68 | Processivity R 1/2 (8-oxo-dGTP 2500 μM, replicates n1-n4): 0.72 and 0.43 (2×) and 0.55 | ln(100-%LB) (8-oxo-dGTP 2500μM, telomere repeat 1): 3.44 and 3.70 and 3.07 | Processivity R 1/2 (8-oxo-dGTP 5000 μM, replicates n1-n4): 0 | Processivity R 1/2 (8-oxo-dGTP 10000 μM, replicates n1-n4): 0 | IC50 [1]: 1690 ± 172 µM | LogIC50 (fit of R 1/2 vs log(concentration μM), 8-oxo-dGTP, replicates N1-N4): 3.24 and 3.27 and 3.16 and 3.23 | Bottom (best-fit value) [2]: 0.33 and -0.00509 and -0.0042 and -0.0316 | HillSlope [2]: -4.72 and -6.07 and -3.06 and -3.86 | Span (best-fit value) [2]: 2.87 and 3.02 and 2.71 and 3.30 | Top (best-fit value) [2]: 3.21 and 3.01 and 2.70 and 3.27 | IC50 [3]: 2000 µM | IC50 (repeat processivity R 1/2, 8-oxo-dGTP, single replicates N1-N4, read-out: IC50): 1740 µM and 1870 µM and 1460 µM and 1690 µM

Cc1cn([C@H]2C[C@H](N=[N+]=[N-])[C@@H](CO[P@](=O)(O)O[P@](=O)(O)OP(=O)(O)O)O2)c(=O)[nH]c1=O [AZT-TP]
IC50 [1]: 402 ± 169 µM | Best-fit values HillSlope [4]: -0.83 and -0.51 | Best-fit values Span [4]: 2.37 and 4.19 | Best-fit values LogIC50 (dose-response fit of processivity R 1/2, log of concentration in μM, individual replicates): 2.72 and 2.45 | Best-fit values Bottom [5]: -0.33 and -0.59 | Best-fit values Top [5]: 2.04 and 3.59 | IC50 [3]: 501 µM | Processivity R 1/2 (modified dNTP concentration 31.25 μM, individual replicates n1-n3): 1.70 and 1.35 | Processivity R 1/2 (modified dNTP concentration 500 μM, individual replicates): 0.80 and 0.64 | Processivity R 1/2 (modified dNTP concentration 1000 μM, individual replicates): 0.57 and 0.61 | Processivity R 1/2 (modified dNTP concentration 2000 μM, individual replicates): 0.00 and 0.49 | Processivity R 1/2 (modified dNTP concentration 4000 μM, individual replicates): 0.00 | IC50 (repeat processivity R 1/2, individual replicates N1-N3, read-out: Best-fit values IC50): 521 µM and 282 µM | IC50 (repeat processivity R 1/2, mean of replicates, read-out: Mean IC50): 402 µM
